In paper PMC3549521, “Carbocyclic Analogues of Inosine-5’-Monophosphate: Synthesis and Biological Activity” (Acta Naturae, 2012) one finds IC50 and Ki data, which are given here for three molecules.

Experiment [1] deals with T1, human type II inosine-5′-monophosphate dehydrogenase (IMPDH II) (Homo sapiens, UniProt P12268).
T1 construct: gene IMPDH2; human recombinant IMPDH II
In words: recombinant enzyme assay, NADH formation at […] nm; positive control. In kind it is biochemical.

Experiment [2] has as its target T1, human type II inosine-5′-monophosphate dehydrogenase (IMPDH II). The experiment in a line: recombinant enzyme assay, NADH formation at […] nm, […] IMP and […] NAD. The format is biochemical.

T1 sequence (P12268 2-514): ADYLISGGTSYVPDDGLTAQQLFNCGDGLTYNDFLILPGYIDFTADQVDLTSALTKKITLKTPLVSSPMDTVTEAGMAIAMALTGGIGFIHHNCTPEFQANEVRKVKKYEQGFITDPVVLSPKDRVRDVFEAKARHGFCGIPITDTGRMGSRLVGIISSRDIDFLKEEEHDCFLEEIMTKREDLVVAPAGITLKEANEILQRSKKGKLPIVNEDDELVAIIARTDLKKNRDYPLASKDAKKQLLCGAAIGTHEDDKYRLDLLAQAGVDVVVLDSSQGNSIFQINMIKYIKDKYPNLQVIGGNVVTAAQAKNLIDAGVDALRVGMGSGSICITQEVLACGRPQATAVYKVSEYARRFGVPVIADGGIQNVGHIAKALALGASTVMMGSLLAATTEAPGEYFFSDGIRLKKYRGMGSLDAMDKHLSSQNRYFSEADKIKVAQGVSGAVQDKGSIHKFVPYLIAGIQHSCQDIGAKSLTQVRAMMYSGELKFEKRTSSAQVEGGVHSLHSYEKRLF

For `NC(=O)c1ncn([C@@H]2O[C@H](COP(=O)(O)O)[C@@H](O)[C@H]2O)n1` [Ribavirin monophosphate], in experiment [1], the IC50 (commonly the concentration needed to halve the response being measured) worked out at 2 µM. On to `O=c1[nH]cnc2c1ncn2C1C=CC(OCP(=O)(O)O)C1` (stereo not drawn) [compound 1, 9-(4’-Phosphonomethoxy-2’-cyclopenten-1’-yl)hypoxanthine], for which the Ki (as a rule, a dissociation constant, usually derived from enzyme kinetics or from competition with a known ligand) in experiment [2] came to 474 µM. Turning to `O=c1[nH]cnc2c1ncn2C1CC(OCP(=O)(O)O)C(O)C1O` (stereo not drawn) [compound 2, 9-(4’-phosphonomethoxy-2’,3’-dihydroxycyclopent-1’-yl)hypoxanthine], in experiment [2], the inhibitory constant (Ki) was 975 µM.
